Source: publication PMC9295122, “Sialic Acid Derivatives Inhibit SiaT Transporters and Delay Bacterial Growth” (ACS Chemical Biology, 2022)

What was measured:
[1] = target: T1, PmSiaT (Proteus mirabilis, UniProt B4EZY7); test: [3H]Neu5Ac efflux in proteoliposomes, PmSiaT; assay type: biochemical; settings: 0.1 mM external compound
T1 construct: made in house
T1 sequence (B4EZY7 1-496): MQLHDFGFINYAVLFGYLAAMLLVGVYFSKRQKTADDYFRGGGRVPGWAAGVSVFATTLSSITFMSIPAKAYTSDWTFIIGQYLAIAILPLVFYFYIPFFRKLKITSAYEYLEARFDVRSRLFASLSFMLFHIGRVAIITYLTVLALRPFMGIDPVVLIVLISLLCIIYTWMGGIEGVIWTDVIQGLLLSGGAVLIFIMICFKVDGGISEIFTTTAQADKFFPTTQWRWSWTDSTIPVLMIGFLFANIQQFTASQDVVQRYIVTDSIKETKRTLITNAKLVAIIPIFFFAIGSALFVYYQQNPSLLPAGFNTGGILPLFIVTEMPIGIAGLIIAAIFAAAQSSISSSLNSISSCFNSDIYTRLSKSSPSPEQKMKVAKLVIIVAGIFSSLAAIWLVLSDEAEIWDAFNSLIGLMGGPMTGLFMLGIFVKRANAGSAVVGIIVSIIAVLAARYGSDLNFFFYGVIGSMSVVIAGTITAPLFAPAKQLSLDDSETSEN
Experimental: Figure 5 Kinetic analysis of the inhibition of recombinant SiaT from P. mirabilis (A,B) and S. aureus (C,D) reconstituted in proteoliposomes and [^3H]Neu5Ac efflux in proteoliposomes (E,F). (a–d) Data were plotted according to Lineweaver–Burk as a reciprocal transport rate vs reciprocal Neu5Ac concentration. The transport rate was measured, in 5 min, by adding [^3H] Neu5Ac at the indicated concentrations to proteoliposomes containing 20 mM K^+-gluconate in the presence of valinomycin as described in the Supporting Information. [(A,B) P. mirabilis SiaT]; (A) compound 3f 0.25 μM (●) or 0.75 μM (□) was added in comparison to samples without inhibitor (○). (B) Compound 3e 12 μM (●) or 40 μM (□) was added in comparison to samples without an inhibitor (○). [(C,D) S. aureus SiaT]. (C) Compound 3f 80 μM (●) or 200 μM (□) was added in comparison to samples without an inhibitor (○). (D) Compound 3e 5 μM (●) or 12 μM (□) was added in comparison to samples without an inhibitor (○). Results are mean ± s.d. from four independent experiments (n = 4). […] Data are calculated as the percent of residual activity with respect to the control sample (efflux time zero). The results are the means ± s.d. of three independent experiments. […]
For uptake experiments, 600 μL of proteoliposomes were loaded onto a Sephadex G-75 column (0.7 cm diameter × 15 cm height), pre-equilibrated with 20 mM Hepes Tris pH 7.0 with 40 mM sucrose to balance the internal osmolarity. […] For kinetic measurement, the initial transport rate was measured by stopping the reaction after 5 min, that is, within the initial linear range of [^3H]-Neu5Ac uptake into the proteoliposomes previously described. […] In both uptake and efflux experiments, the transport assay was terminated by loading each proteoliposome sample (100 μL) on a Sephadex G-75 column (0.6 cm diameter × 8 cm height) to remove the external radioactivity. Proteoliposomes were eluted with 1 mL of 50 mM NaCl and collected in a 4 mL of scintillation mixture, vortexed and counted. […]

[2] = LogD pH 7.4 shake flask; assay type: physicochemical; settings: 1-octanol / phosphate buffer pH 7.4
Experimental: Distribution coefficients between 1-octanol and phosphate buffer pH 7.4 were determined with a shake flask method with the LC–UV detection of the compound concentration in both phases. The reported range was from −1 to +4.

[3] = Plasma stability, mouse; assay type: in vitro ADME; settings: 1 μM, 37 °C
Experimental: (§1) The reaction was started by the addition of the compound to blank plasma in LC vials after preincubation at 37 °C. The initial compound concentration was 1 μM. The reaction was stopped by the addition of ACN at seven time points (0, 0.5, 1, 2, 4, 6, and 23 h). Time point 0 h was about 15–20 s after spiking the plasma with the compound. The samples were centrifuged and the supernatant diluted and analyzed by LC–MS/MS to determine the % of compound remaining relative to the initial concentration of compound.

[4] = Plasma stability, rat; assay type: in vitro ADME; settings: 1 μM, 37 °C
Experimental: as §1

[5] = Plasma-protein binding by RED, human; assay type: in vitro ADME; settings: pH 7.2, read-out: Plasma-protein binding by RED (% unbound compound, average n=2)
Experimental: The assay was run in a deep well plate containing RED inserts with semipermeable dialysis membranes. The reaction was started by adding the compounds to a blank plasma in a 5 μM concentration. Opposite to the blank plasma was a compartment containing isotonic sodium–phosphate buffer (pH 7.2) separated from the plasma by the membrane. The plate was equilibrated in a water bath at 37 °C for 4 h. Samples from both the plasma and the buffer side were matrix compensated before protein precipitation. The samples were centrifuged, and the supernatants were diluted and analyzed by LC–MS/MS to determine the % unbound compound. Two incubations per compound per species.

Row | Structure (SMILES) | [3H]Neu5Ac efflux induced [1] | logD [2] | In vitro plasma stability (% compound remaining after 23 h) [3] | In vitro plasma stability (% compound remaining after 23 h) [4] | fraction unbound at 4 h, 5 μM [5]
1 | CC(=O)NC1C(OCc2cc(Br)cc(Br)c2)CC(O)(C(=O)O)OC1C(O)C(O)CO (stereo not drawn) [Compound 3f] | did not cause any [^3H]Neu5Ac efflux | < 0 | 100% | 100% | 0.27
2 | CC(=O)NC1C(OCc2ccccc2)CC(O)(C(=O)O)OC1C(O)C(O)CO (stereo not drawn) [Compound 3a] |  | < -0.5 | 100% | 100% | 0.85
3 | CC(=O)N[C@H]1[C@H]([C@H](O)[C@H](O)CO)OC(O)(C(=O)O)C[C@@H]1O (stereo partly drawn) [Neu5Ac, 5-N-acetyl neuraminic acid, reference compound] | slow but measurable counter flow |  |  |  | 
4 | CC(=O)NC1C(OCc2cc(F)cc(F)c2)CC(O)(C(=O)O)OC1C(O)C(O)CO (stereo not drawn) [Compound 3e] | did not cause any [^3H]Neu5Ac efflux | < -0.5 | 100% | 100% | 0.74
